{"source": "patent US20110201631A1", "about": "“PHARMACEUTICAL FORMULATIONS COMPRISING PEMETREXED” (DR. REDDY'S LABORATORIES LTD., priority 2008, published 2011)", "origin": "cited, not measured here", "conditions": "U.S. Pat. No. 7,138,521", "data": [{"smiles": "Nc1nc2[nH]cc(CCc3ccc(C(=O)N[C@@H](CCC(=O)[O-])C(=O)[O-])cc3)c2c(=O)[nH]1.[Na+].[Na+]", "note": "[heptahydrate, L-Glutamic acid, N-[4-[2-(2-amino-4,7-dihydro-4-oxo-1H-pyrrolo[2,3-c]pyrimidin-5-yl)ethyl]benzoyl]-, disodium salt, heptahydrate]", "values": [{"measurement": "Stability of crystal form relative to 2.5 hydrate", "result": "much more stable than the previously known 2.5 hydrate"}]}]}
